The text below walks through data of BindingDB's records for patent US12258317 (Sunshine Lake Pharma Co., 2025).

Assay [1] concerns the target T1, Amine oxidase [copper-containing] 3 (Homo sapiens, UniProt Q16853).
T1 sequence (Q16853 whole entry): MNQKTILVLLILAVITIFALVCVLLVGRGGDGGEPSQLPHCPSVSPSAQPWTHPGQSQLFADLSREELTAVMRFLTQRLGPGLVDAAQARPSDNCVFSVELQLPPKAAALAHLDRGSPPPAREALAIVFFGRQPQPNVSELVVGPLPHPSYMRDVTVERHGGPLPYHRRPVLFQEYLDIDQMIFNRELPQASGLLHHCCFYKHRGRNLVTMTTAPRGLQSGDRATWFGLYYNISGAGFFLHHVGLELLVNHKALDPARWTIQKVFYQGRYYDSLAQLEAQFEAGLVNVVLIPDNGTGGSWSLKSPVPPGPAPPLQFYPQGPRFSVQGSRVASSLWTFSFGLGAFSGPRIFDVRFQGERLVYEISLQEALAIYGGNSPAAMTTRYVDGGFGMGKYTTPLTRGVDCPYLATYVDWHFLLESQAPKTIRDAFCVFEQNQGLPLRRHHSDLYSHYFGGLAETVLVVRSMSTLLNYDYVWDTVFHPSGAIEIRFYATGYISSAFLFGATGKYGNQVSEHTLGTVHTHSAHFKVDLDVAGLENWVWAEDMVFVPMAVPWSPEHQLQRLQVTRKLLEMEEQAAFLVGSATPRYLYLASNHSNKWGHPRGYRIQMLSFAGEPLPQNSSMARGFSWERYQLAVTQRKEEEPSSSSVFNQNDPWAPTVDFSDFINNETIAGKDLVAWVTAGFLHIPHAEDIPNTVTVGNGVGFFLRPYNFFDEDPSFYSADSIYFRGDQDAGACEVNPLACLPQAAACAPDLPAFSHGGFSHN
As to the kind of experiment: Inhibitory Activity of Human Recombinant SSAO/VAP-1. The text has this:
Test purpose: The following method is used to determine the inhibitory activity of the compounds in the examples of the present invention on human recombinant SSAO/VAP-1.Test Materials:Human recombinant SSAO/VAP-1 (VAP-1, human) was purchased from Sigma, Cat. No. SRP6241;Amplex Red Monoamine Oxidase Assay Kit was purchased from Invitrogen, Cat. No. A12214;384-well plate was purchased from Corning, Cat. No. 6005174;Amplex Red Hydrogen PeroxidePeroxidase Assay Kit was purchased from Invitrogen, Cat. No. A22188.Benzylamine hydrochloride was purchased from Sigma, Cat. No. B5136-25G;DMSO (Dimethyl Sulfoxide) was purchased from Sigma, Cat. No. D2650-100ML;Test Method:The test compound was dissolved in DMSO and diluted 4 times to a total of 10 concentrations. In a 384-well plate, 25 μL of human recombinant SSAO/VAP-1 (1.6 μg/mL) was added into each well. 100 nL of test compounds at different concentrations were added to each well containing human recombinant SSAO/VAP-1, and the plate was incubated at room temperature for 30 min. […] After 60 min, PerkinElmer's Envision was used to read the fluorescence value (RFU) under excitation at 530-560 nm and emission at 590 nm.

The target in assay [2] is T2, Diamine oxidase [copper-containing] (Homo sapiens, UniProt P19801).
T2 construct: gene AOC1
Kind of assay: Inhibition of DAO (Diamine Oxidase). On the procedure: Test purpose: The following method is used to determine the selective inhibitory activity of the compound of the present invention on DAO.Test Materials:Human recombinant DAO (Recombinant Human ABP-1/DAO) was purchased from R&D, Cat. No. 8298-AO;Amplex Red Hydrogen PeroxidePeroxidase Assay Kit was purchased from Invitrogen, Cat. No. A22188;1,4-Diaminobutane dihydrochloride was purchased from Aladdin, Cat. No. D106194-25G.Test Method:The test compound was dissolved in DMSO and diluted 5 times to a total of 6 concentrations. In a 384-well plate, 24 μL of human recombinant DAO (1 μg/mL) was added into each well. 1 μL of test compounds at different concentrations were added to each well containing human recombinant DAO, and the plate was incubated at 37° C. for 30 min. After incubating for 30 min, 25 μL of Amplex Red Hydrogen Peroxide Peroxidase Assay Kit (containing 100 μM Amplex Red and 0.2 U/ml HRP) containing 1 M 1,4-butanediamine dihydrochloride was added into the corresponding wells, and the plate was incubated in the dark at 37° C. for 30 min. After 30 min, PHERAstar FSX microplate reader of BMG LABTECH was used to read the fluorescence value (RFU) under excitation at 540 nm and emission at 580 nm.

For orientation: IC50 means the concentration that inhibits the measured activity by half.

T2 sequence (P19801 20-751 limits assumed): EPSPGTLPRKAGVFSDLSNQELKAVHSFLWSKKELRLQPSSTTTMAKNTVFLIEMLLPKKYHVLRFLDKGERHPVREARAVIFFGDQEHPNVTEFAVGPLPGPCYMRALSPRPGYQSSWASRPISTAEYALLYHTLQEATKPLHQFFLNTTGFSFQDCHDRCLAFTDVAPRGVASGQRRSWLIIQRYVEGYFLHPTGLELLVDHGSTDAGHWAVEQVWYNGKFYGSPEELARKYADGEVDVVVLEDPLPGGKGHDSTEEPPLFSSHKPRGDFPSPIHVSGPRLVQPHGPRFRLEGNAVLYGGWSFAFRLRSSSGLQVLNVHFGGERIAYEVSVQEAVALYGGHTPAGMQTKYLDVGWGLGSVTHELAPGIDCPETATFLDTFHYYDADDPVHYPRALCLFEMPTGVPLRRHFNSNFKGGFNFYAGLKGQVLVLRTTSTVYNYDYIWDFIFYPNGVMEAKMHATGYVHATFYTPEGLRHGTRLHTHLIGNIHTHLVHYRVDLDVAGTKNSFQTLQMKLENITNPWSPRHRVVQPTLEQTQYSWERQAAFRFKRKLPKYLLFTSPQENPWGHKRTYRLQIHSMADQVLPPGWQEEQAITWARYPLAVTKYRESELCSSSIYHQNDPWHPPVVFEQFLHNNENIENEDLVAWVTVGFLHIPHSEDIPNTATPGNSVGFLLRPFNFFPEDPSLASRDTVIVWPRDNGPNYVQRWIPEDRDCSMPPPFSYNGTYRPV

`NC/C(=C/F)COc1ccc2c(c1)CCN(CC(N)=O)C2=O` [US12258317, Example 2]: the IC50 in assay [1] was found to be 2.2 nM. As for `NC/C(=C\F)COc1ccc2c(c1)CCN(CC(N)=O)C2=O` [US12258317, Example 1], the values for the IC50 in assay [1] and in assay [2] were 6.29 nM and above 1000 nM, respectively.
